Measurements taken from US20260131007A1, “Mannose 6-Phosphate Receptor Binding Compounds for the Degradation of Extracellular Proteins” (Avilar Therapeutics, Inc., priority 2023, published 2026).
Counter-ions that a name gives are not always drawn.

biological target: T1, Insulin-like growth factor 2 receptor (IGF-1IR, cation-independent mannose-6-phosphate receptor, CI-MPR; hIGF-IIR) (Homo sapiens, UniProt P11717); assay: HTRF-based ternary complex inhibition assay for relative affinity of IGF-IIR ligands; conditions: competition with MTAC probe for His-tagged hIGF-IIR; biotinylated IgG1; apparent binding affinity; read-out: TCF INH (HTRF) IC50
T1 construct: purchased R&D Systems 6418-GR
Protocol: The apparent binding affinity of Insulin-like growth factor 2 receptor (IGF-1IR, also called the cation- independent mannose-6-phosphate receptor (CI-MPR)) ligands was determined indirectly by competing with a probe molecule for binding to IGF-1IR. The probe is a Mannose 6-Phosphate Ligand (“Ligand”) and binds to hIGF-IIR and IgG1 to form a hIGF-IIR: Ligand: IgG1 ternary complex. The ternary complex was detected by an HTRF readout. The ternary complex is disrupted in the presence of IGF-1IR ligand, resulting in decreased HTRF signal. IGF-1IR ligands of 3-fold dilution series were prepared from 10 mM DMSO stock on a 384-well LDV microplate using Echo Acoustic Liquid Handler (Beckman Coulter Life Sciences) followed by transfer of 600 nL of the solutions to an OptiPlate 384-well microplate (PerkinElmer, 6007290). Manose-6-phosphate (M6P; J&K, 530168) and glucose-6-phosphate (G6P; Sigma, V900924) were prepared from 100 mM stock in the same manner and were used as positive and negative controls, respectively. The wells used as 0% and 100% inhibition controls were prepared by adding 600 nL DMSO. 20 nL of 50 μM MTAC probe was transferred to all wells except the wells used as 100% Inhibition control. 9.4 μL working solution containing 65.1 nM of Biotinylated-IgG1 (Viva 20211108) and 65.1 nM of His-tagged hIGF-IIR (R&D Systems, 6418-GR) in assay buffer 50 mM Tris, pH 7.5, 150 mM NaCl, 50 mM CaCl2, 0.01% Tween-20 was transferred to all wells. The plate was incubated at room temperature for 60 min with gentle shaking to allow molecular interaction to reach equilibration. Following this, 10 μL of HTRF detection solution containing 15 nM Streptavidin-d2 (PerkinElmer, 610SADLA) and 0.7 nM MAb Anti 6HIS—Tb cryptate (PerkinElmer, 61HISTLA) in PPI Terbium detection buffer (PerkinElmer, 61DB10RDF) was added. The assay plate was incubated at room temperature with gentle shaking for 60 min to allow HTRF signal to develop. The plate was gently spun on a centrifuge then placed on a EnVision plate reader (Perkin Elmer, EnVision 2104) to read fluorescence ratio of 665 nm/615 nm. Percent inhibitions were calculated with this equation: % I=100* [1−(X−100% I/(0% I−100% I)] where X is the […] in the presence of IGF-1IR ligand. The apparent binding affinity (presented as IC50) was calculated by fitting the % inhibition data with a non-linear 4-parameter inhibition equation using GraphPad Prism (GraphPad Software, LLC; version 9.4.1).

| SMILES | IC50 |
| --- | --- |
| CS(=N)(=O)CC[C@H]1O[C@H](O)[C@@H](O)[C@@H](O)[C@@H]1O (stereo partly drawn) [Compound A1, imino(methyl) (2-((2R,3S,4S,5S,6S)-3,4,5,6-tetrahydroxytetrahydro-2H-pyran-2-yl)ethyl)-16-sulfanone] | < 10 µM |
| NC[C@H]1O[C@H](Oc2ccccc2)[C@@H](O)[C@@H](O)[C@@H]1O [Compound A2, (2R,3S,4S,5S,6R)-2-(aminomethyl)-6-phenoxytetrahydro-2H-pyran-3,4,5-triol] | 10 to 100 µM |
| N#CNC(=O)CC[C@H]1O[C@H](Oc2ccccc2)[C@@H](O)[C@@H](O)[C@@H]1O [Compound A3, N-cyano-3-((2R,3S,4S,5S,6R)-3,4,5-trihydroxy-6-phenoxytetrahydro-2H-pyran-2-yl)propanamide] | 10 to 100 µM |
| CC(=O)NS(=O)(=O)OC[C@H]1O[C@H](Oc2ccccc2)[C@@H](O)[C@@H](O)[C@@H]1O [Compound A4, ((2R,3S,4S,5S,6R)-3,4,5-trihydroxy-6-phenoxytetrahydro-2H-pyran-2-yl)methyl acetylsulfamate] | 100 to 300 µM |
| COC(=O)c1ccc(O[C@H]2O[C@H](CNc3c(O)c(=O)c3=O)[C@@H](O)[C@H](O)[C@@H]2O)cc1 [Compound A7, methyl 4-(((3S,4S,5S,6R)-3,4,5-trihydroxy-6-(((2-hydroxy-3,4-dioxocyclobut-1-en-1-yl)amino)methyl)tetrahydro-2H-pyran-2-yl)oxy)benzoate] | 100 to 300 µM |
| CO[C@@H]1O[C@H](CCS(=O)(=O)Nc2ncccn2)[C@@H](O)[C@H](O)[C@@H]1O [Compound A8, N-(pyrimidin-2-yl)-2-((2R,3S,4S,5S,6R)-3,4,5-trihydroxy-6-methoxytetrahydro-2H-pyran-2-yl)ethane-1-sulfonamide] | 10 to 100 µM |
| CO[C@H]1O[C@H](CCS(=O)(=O)Nc2ncccn2)[C@@H](O)[C@H](O)[C@@H]1O [Compound A9, N-(pyrimidin-2-yl)-2-((2R,3S,4S,5S,6S)-3,4,5-trihydroxy-6-methoxytetrahydro-2H-pyran-2-yl)ethane-1-sulfonamide] | 100 to 300 µM |
| O=C(NS(=O)(=O)CC[C@H]1O[C@H](O)[C@@H](O)[C@@H](O)[C@@H]1O)c1ccno1 [Compound A11, N-((2-((2R,3S,4S,5S,6S)-3,4,5,6-tetrahydroxytetrahydro-2H-pyran-2-yl)ethyl)sulfonyl)isoxazole-5-carboxamide] | 10 to 100 µM |
| O=C(NS(=O)(=O)CC[C@H]1O[C@H](O)[C@@H](O)[C@@H](O)[C@@H]1O)c1ccccc1 [Compound A12, N-((2-((2R,3S,4S,5S,6S)-3,4,5,6-tetrahydroxytetrahydro-2H-pyran-2-yl)ethyl)sulfonyl)benzamide] | 100 to 300 µM |
| O=P(O)(O)CC[C@H]1OC(CCc2ccccc2)[C@@H](O)[C@@H](O)[C@@H]1O (stereo partly drawn) [Compound A13, (2-((2R,3S,4R,5S)-3,4,5-trihydroxy-6-phenethyltetrahydro-2H-pyran-2-yl)ethyl)phosphonic acid] | < 10 µM |
| C#CCCOC1O[C@H](CCS(=O)(=O)Nc2ncccn2)[C@@H](O)[C@H](O)[C@@H]1O (stereo partly drawn) [Compound A14, 2-((2R,3S,4S,5S)-6-(but-3-yn-1-yloxy)-3,4,5-trihydroxytetrahydro-2H-pyran-2-yl)-N-(pyrimidin-2-yl)ethane-1-sulfonamide] | 100 to 300 µM |
| O=P(O)(O)CC[C@H]1OC(c2cc3c(cc2O)Cc2ccccc2-3)[C@@H](O)[C@@H](O)[C@@H]1O (stereo partly drawn) [Compound A15, (2-((2R,3S,4S,5S)-3,4,5-trihydroxy-6-(2-hydroxy-9H-fluoren-3-yl)tetrahydro-2H-pyran-2-yl)ethyl)phosphonic acid] | < 10 µM |
| O=P(O)(O)CC[C@H]1OC(C#Cc2ccccc2)[C@@H](O)[C@@H](O)[C@@H]1O (stereo partly drawn) [Compound A16, (2-((2R,3S,4S,5S)-3,4,5-trihydroxy-6-(phenylethynyl)tetrahydro-2H-pyran-2-yl)ethyl)phosphonic acid] | < 10 µM |
| O=P(O)(O)CC[C@H]1O[C@H](c2cn(CCc3ccccc3)nn2)[C@@H](O)[C@@H](O)[C@@H]1O [Compound A17, (2-((2R,3S,4S,5S,6R)-3,4,5-trihydroxy-6-(1-phenethyl-1H-1,2,3-triazol-4-yl)tetrahydro-2H-pyran-2-yl)ethyl)phosphonic acid] | < 10 µM |
| C[Si](C)(C)C#C[C@H]1O[C@H](CCP(=O)(O)O)[C@@H](O)[C@H](O)[C@@H]1O [Compound A18, (2-((2R,3S,4S,5S,6R)-3,4,5-trihydroxy-6-((trimethylsilyl)ethynyl)tetrahydro-2H-pyran-2-yl)ethyl)phosphonic acid] | < 10 µM |
| O=P(O)(O)CC[C@H]1O[C@H](Oc2ccc3c(c2)Cc2ccccc2-3)[C@@H](O)[C@@H](O)[C@@H]1O [Compound A19, (2-((2R,3S,4S,5S,6R)-6-((9H-fluoren-2-yl)oxy)-3,4,5-trihydroxytetrahydro-2H-pyran-2-yl)ethyl)phosphonic acid] | < 10 µM |
| C#C[C@H]1O[C@H](CCP(=O)(O)O)[C@@H](O)[C@H](O)[C@@H]1O [Compound A20, (2-((2R,3S,4S,5S,6R)-6-ethynyl-3,4,5-trihydroxytetrahydro-2H-pyran-2-yl)ethyl)phosphonic acid] | < 10 µM |
| O=P(O)(O)CC[C@H]1O[C@H](/C=C/c2ccccc2)[C@@H](O)[C@@H](O)[C@@H]1O [Compound A21, (2-((2R,3S,4S,5S,6R)-3,4,5-trihydroxy-6-((E)-styryl)tetrahydro-2H-pyran-2-yl)ethyl)phosphonic acid] | 10 to 100 µM |
| O=P(O)(O)CC[C@H]1O[C@H](Oc2ccc3c(c2)Cc2cc(O)ccc2-3)[C@@H](O)[C@@H](O)[C@@H]1O [Compound A22, (2-((2R,3S,4S,5S,6R)-3,4,5-trihydroxy-6-((7-hydroxy-9H-fluoren-2-yl)oxy)tetrahydro-2H-pyran-2-yl)ethyl)phosphonic acid] | < 10 µM |
| NC[C@H]1O[C@H](O)[C@@H](O)[C@@H](O)[C@@H]1O [Compound A41, (2S,3S,4S,5S,6R)-6-(aminomethyl)tetrahydro-2H-pyran-2,3,4,5-tetraol hydrochloride] | 10 to 100 µM |
| O=P(O)(CC[C@H]1O[C@H](Oc2ccccc2)[C@@H](O)[C@@H](O)[C@@H]1O)Cc1c(F)cccc1F [Compound A42, (2,6-difluorobenzyl) (2-((2R,3S,4S,5S,6R)-3,4,5-trihydroxy-6-phenoxytetrahydro-2H-pyran-2-yl)ethyl)phosphinic acid] | < 10 µM |
| O=P(O)(O)C1CC1[C@H]1O[C@H](Oc2ccccc2)[C@@H](O)[C@@H](O)[C@@H]1O (stereo partly drawn) [Compound A43, [2-[(2R,3S,4S,5S,6R)-3,4,5-trihydroxy-6-phenoxy-tetrahydropyran-2-yl]cyclopropyl]phosphonic acid] | 10 to 100 µM |
| CP(=O)(O)CC[C@H]1O[C@H](Oc2ccccc2)[C@@H](O)[C@@H](O)[C@@H]1O [Compound A44, methyl(2-((2R,3S,4S,5S,6R)-3,4,5-trihydroxy-6-phenoxytetrahydro-2H-pyran-2-yl)ethyl)phosphinic acid] | 10 to 100 µM |
| COCP(=O)(O)CC[C@H]1O[C@H](Oc2ccccc2)[C@@H](O)[C@@H](O)[C@@H]1O [Compound A45, methoxymethyl-[2-[(2R,3S,4S,5S,6R)-3,4,5-trihydroxy-6-phenoxy-tetrahydropyran-2-yl]ethyl]phosphinic acid] | 10 to 100 µM |
| O=P(O)(CC[C@H]1O[C@H](Oc2ccccc2)[C@@H](O)[C@@H](O)[C@@H]1O)Cc1ccccc1O [Compound A46, (2-hydroxybenzyl) (2-((2R,3S,4S,5S,6R)-3,4,5-trihydroxy-6-phenoxytetrahydro-2H-pyran-2-yl)ethyl)phosphinic acid] | < 10 µM |
| O=P(O)(CC[C@H]1O[C@H](OC2CCCCC2)[C@@H](O)[C@@H](O)[C@@H]1O)Cc1ccccc1O [Compound A47, 2-[(2R,3S,4S,5S,6S)-6-(cyclohexoxy)-3,4,5-trihydroxy-tetrahydropyran-2-yl]ethyl-[(2-hydroxyphenyl)methyl]phosphinic acid] | 10 to 100 µM |
| COc1ccc(OC2O[C@H](CCP(=O)(O)CC#N)[C@@H](O)[C@H](O)[C@@H]2O)cc1 (stereo partly drawn) [Compound A48, (cyanomethyl) (2-((2R,3S,4S,5S)-3,4,5-trihydroxy-6-(4-methoxyphenoxy)tetrahydro-2H-pyran-2-yl)ethyl)phosphinic acid] | 10 to 100 µM |
